Results from patent US9354225B2 (priority 2009, dated 2016).
Read-outs that look alike come from different tables or passages of the source.

Test system: PrPsc signal in buffy coat (scrapie blood leukocytes)
Format: cell-based, sheep
Details: for PrPsc signal from the buffy coat (OD): additive 5 mM final in whole blood at collection, stored 24 h at 4° C. or room temperature; for preservation of the PrPsc harbored in the buffy coat of blood: scrapie sheep of both ARQ/ARQ and VRQ/VRQ genotypes, additive in blood, stored for at least 24 h
[1] = pre-clinical scrapie sheep #1 (ARQ/ARQ), FIG. 1
[2] = pre-clinical scrapie sheep #2 (ARQ/ARQ), FIG. 2

| Molecule | PrPsc signal from the buffy coat (OD) [1] | PrPsc signal from the buffy coat (OD) [2] | preservation of the PrPsc harbored in the buffy coat of blood | detection signal in buffy coat fractions of blood samples (scrapie animals, samples processed 24 hours post-collection) | percentage loss of PrPsc signal relative to sample processed immediately |
| --- | --- | --- | --- | --- | --- |
| O=C(O)CN(CCOCCOCCN(CC(=O)O)CC(=O)O)CC(=O)O [EGTA, ethylene glycol tetraacetic acid] | preserve the PrPsc signal | preserve the PrPsc signal | allow for the preservation of the PrPsc |  |  |
| N[C@@H](CCC(=O)N[C@@H](CS)C(=O)NCC(=O)O)C(=O)O [L-glutathione (reduced)] | preserve the PrPsc signal | preserve the PrPsc signal | allow for the preservation of the PrPsc | can preserve the detection signal |  |
| oxidized L-glutathione |  |  |  |  | lack of effect |
